Source: publication PMC7588595, “Small-molecule active pharmaceutical ingredients of approved cancer therapeutics inhibit human aspartate/asparagine-β-hydroxylase” (Bioorganic & Medicinal Chemistry, 2020)
Like-named read-outs stand apart in the source and are kept apart here.

Key:
[1] = molecular target: T1, human AspH (His6-AspH315–758) (Homo sapiens, UniProt Q12797); test: SPE-MS AspH inhibition assay (hFX-CP101-119 substrate hydroxylation); type: biochemical; conditions: for inhibition at 20 µM / AspH inhibition at 20 μM: 20 μM fixed inhibitor, relative to DMSO and 2,4-PDCA controls; for Hill coefficient of AspH inhibition curves: dose-response curves of SPE-MS AspH inhibition assay; for remaining activity at 20 µM: 20 μM fixed inhibitor concentration
T1 construct: N-Terminally His6-tagged human AspH315–758 (His6-AspH315–758) was produced in Escherichia coli BL21 (DE3) cells; made in house; host or cells: Escherichia coli BL21 (DE3), pET-28a(+) vector
T1 sequence (Q12797 315-758): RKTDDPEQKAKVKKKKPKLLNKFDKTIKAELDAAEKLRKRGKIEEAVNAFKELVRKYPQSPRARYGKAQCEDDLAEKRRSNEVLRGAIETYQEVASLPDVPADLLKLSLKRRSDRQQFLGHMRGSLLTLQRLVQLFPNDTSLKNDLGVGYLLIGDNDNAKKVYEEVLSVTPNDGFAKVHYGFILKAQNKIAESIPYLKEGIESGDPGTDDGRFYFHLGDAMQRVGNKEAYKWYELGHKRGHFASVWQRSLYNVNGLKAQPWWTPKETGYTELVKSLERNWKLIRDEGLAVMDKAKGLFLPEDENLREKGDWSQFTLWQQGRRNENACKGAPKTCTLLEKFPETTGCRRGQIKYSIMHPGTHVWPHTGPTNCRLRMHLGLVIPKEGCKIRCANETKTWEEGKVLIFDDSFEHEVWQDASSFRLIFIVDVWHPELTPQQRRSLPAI

His6-AspH315–758 = molecular target: T2, His6-AspH315–758 (Homo sapiens, UniProt Q12797); test: AspH differential scanning fluorimetry (DSF) assay, melting temperature shift; type: binding; conditions: 40 μM inhibitor, 4 μM His6-AspH315–758, with respect to DMSO controls; for ΔTm at 40 µM: read-out: Tm-shift (ΔTm) of AspH
T2 construct: A mixture of SYPRO orange (1‰v/v) and His6-AspH315–758 (4 μM) in 50 mM aqueous HEPES buffer; made in house; host or cells: Escherichia coli BL21 (DE3), pET-28a(+) vector
T2 sequence (Q12797 315-758): T1 sequence (Q12797 315-758)
Experimental: A mixture of SYPRO orange (1‰v/v) and His6-AspH315–758 (4 μM) in 50 mM aqueous HEPES buffer (pH 7.5, 150 mM NaCl, 50 μM NiCl2) was carefully pipetted into a 96-well VWR PCR-plate (38 μL per well). An inhibitor solution (0.8 mM in DMSO) or a negative control sample (pure DMSO) was added to each well (2 μL per well, final inhibitor concentration of 40 μM) and the resulting solutions were gently mixed using a pipette. The plate was sealed with optical tape (Bio-Rag, iCycler iQ), centrifuged (5 sec, 1000 rpm) and placed into a C1000Touch Thermal Cycler equipped with a CFX96 Real-Time System (Bio-Rad). The instrument was heated with a rate of 1 °C per cycle (starting at an initial temperature of 25 °C; 70 cycles total). Data were analyzed using Microsoft Excel and GraphPad Prism according to the literature.[107] DSF assays were performed in independent duplicates, each composed of technical duplicates (Supporting Fig. S4).

Bcl-XL = conditions: fluorescence polarisation, 30 nM enzyme concentration; cited from earlier work
[2] = 50 nM His6-AspH315–758, 1 μM hFX-CP101–119, 100 μM LAA, 3 μM 2OG, 2 μM FAS, 50 mM HEPES pH 7.5, 20 °C, read-out: IC50
[3] = 50 nM His6-AspH315–758, 1 μM hFX-CP101–119, 100 μM LAA, 3 μM 2OG, 2 μM FAS, 50 mM HEPES pH 7.5, 20 °C
[4] = read-out: IC50 at 10 μM substrate, 10 μM hFX-CP101–119 and 10 μM 2OG instead of 1 μM hFX-CP101–119 and 3 μM 2OG
[5] = read-out: IC50 at 200 μM 2OG, 200 μM 2OG instead of 3 μM 2OG
[6] = read-out: IC50 at 20 μM Fe(II), 20 μM Fe(II) instead of 2 μM Fe(II)
[7] = AspH-inhibitor screening, 384-well Plate 1
[8] = AspH-inhibitor screening, 384-well Plate 1, substrate conversion
[9] = AspH-inhibitor screening, Plate 1-duplicate
[10] = AspH-inhibitor screening, Plate 1-duplicate, substrate conversion

Compound	IC50 [1, 2] [µM]	inhibition at 20 µM [1, 3] [%]	IC50 [1, 4] [µM]	IC50 [1, 5] [µM]	ΔTm at 40 µM (His6-AspH315–758) [°C]	IC50 [1, 6] [µM]	Plate 1 (% inhibition) [1, 7] [%]	Plate 1 (% conversion) [1, 8] [%]	Plate 1-duplicate (% inhibition) [1, 9] [%]	Plate 1-duplicate (% conversion) [1, 10] [%]	other results
O=C(O)c1ccnc(C(=O)O)c1 [2,4-PDCA, Pyridine-2,4-dicarboxylic acid, reference compound]	0.02 ± 0.01	100 ± 0.6	0.02 ± 0.01	0.1 ± 0.03	3.2 ± 0.4						
Cc1cc2c(C(C)C)c(O)c(O)c(C=O)c2c(O)c1-c1c(C)cc2c(C(C)C)c(O)c(O)c(C=O)c2c1O [(R)-Gossypol, reference compound]	0.25 ± 0.01	101 ± 2.3	0.33 ± 0.02	0.25 ± 0.01		0.26 ± 0.03					AspH inhibition at 20 μM [1, 3]: Complete suppression of AspH activity; IC50 (Bcl-XL): ~0.5 µM
CN(C)CC[C@H](CSc1ccccc1)Nc1ccc(S(=O)(=O)NC(=O)c2ccc(N3CCN(Cc4ccccc4-c4ccc(Cl)cc4)CC3)cc2)cc1[N+](=O)[O-] [ABT-737, reference compound]	3.38 ± 0.34		2.99 ± 0.35	4.47 ± 1.32	1.5 ± 0.1	2.92 ± 0.88					
O=C(/C=C/c1cccc(S(=O)(=O)Nc2ccccc2)c1)NO [Belinostat, reference compound]	7.49 ± 1.26	> 90	4.77 ± 0.1	11.2 ± 4	0.1 ± 0.2	3.1 ± 1.44					AspH inhibition at 20 μM [1, 3]: 97.1 ± 0.2%; Hill coefficient of AspH inhibition curves [1]: < -2.0
CC1(C)CCC(c2ccc(Cl)cc2)=C(CN2CCN(c3ccc(C(=O)NS(=O)(=O)c4ccc(N[C@H](CCN5CCOCC5)CSc5ccccc5)c(S(=O)(=O)C(F)(F)F)c4)cc3)CC2)C1 [Navitoclax, reference compound]	1.03 ± 0.12	90.1 ± 0.1	1.21 ± 0.04	1.33 ± 0.17	-2.1 ± 0.3	0.8 ± 0.42					IC50 ([1]; 50 nM His6-AspH315–758, 1 μM hFX-CP101–119, 100 μM LAA, 3 μM 2OG, 2 μM FAS, 50 mM HEPES pH 7.5, 20 °C, listed as navitoclax, read-out: IC50): ~1 µM; remaining activity at 20 µM [1]: ~10%
CC1(C)CCC(CN2CCN(c3ccc(C(=O)NS(=O)(=O)c4ccc(NCC5CCOCC5)c([N+](=O)[O-])c4)c(Oc4cnc5[nH]ccc5c4)c3)CC2)=C(c2ccc(Cl)cc2)C1 [Venetoclax, reference compound]	1.4 ± 0.14	97.2 ± 0.2	1.57 ± 0.21	1.52 ± 0.24	0.7 ± 0.3	1.29 ± 0.24	97.05	4.94	97.31	3.78	IC50 ([1]; 50 nM His6-AspH315–758, 1 μM hFX-CP101–119, 100 μM LAA, 3 μM 2OG, 2 μM FAS, 50 mM HEPES pH 7.5, 20 °C, listed as venetoclax, read-out: IC50): ~1.4 µM; remaining activity at 20 µM [1]: ~3%; selectivity for Bcl-2 over AspH ([1]; Bcl-2 inhibited more efficiently than AspH): ~ 1000 fold; Hill coefficient of AspH inhibition curves [1]: < -2.0
AZ 3146							-12.15	55.36	4.56		
AZD4547							-11.19	54.92	-5.75	54.89	
Bleomycin sulfate							98.37	4.32	96.60	4.13	
KX2-391							2.59	48.55	1.17	51.46	
Mithramycin A [reference compound]											Tm-shift (ΔTm) of AspH (His6-AspH315–758): 0.4 ± 0.2 °C
VX-11e											Plate 1 (% conversion) [1]: 33.84%; Plate 1 (% inhibition) [1]: 34.46%; Plate 1-duplicate (% conversion) [1]: 36.75%; Plate 1-duplicate (% inhibition) [1]: 30.84%
